Laboratory results published in patent US20040019060A1, “Sigma receptor ligands and their medical uses” (priority 2000, published 2004).
Where a name gives a salt, the structure may show the parent alone.

Columns and labels:
sponge angiogenesis = experiment: Rat sponge angiogenesis model (125I albumin vascular volume); format: in vivo, CBH/cbi rats
Method: In order to study neoangiogenesis in the absence of tumours, sterile polyether sponges were implanted into animals. This technique, developed in Cambridge, has been widely used to study angiogenesis. We have employed a triple radiotracer technique to study different aspects of the angiogenic process.
CBH/cbi rats were implanted s.c. with sterile 13 mm diameter sponges as above. They were treated i.p. with Rimcazole (30 mg/kg/day) for 14 days from day 0. Five minutes before termination, they were injected with ^125I labelled rat albumin (a macromolecule which, in the short term remains intravascular). The amount of radioiodine in the sponges is an index of vascular volume.

[1] = system: MDA MB 435 human breast carcinoma xenografts; experiment: MDA MB 435 breast carcinoma xenograft growth and angiogenesis; format: in vivo, NCr athymic mice; settings: for Tumour growth (increase in volume relative to start of treatment): FIG. 8a
Method: MDA MB 435 human breast carcinoma cells (as a model of hormone-insensitive disease) were grown in tissue culture to 70% confluence, harvested with trypsin:EDTA, washed, resuspended in DMEM and injected bilaterally into the inguinal fat pads of 6 week old female NCr athymic mice (orthotopic site) at 1.5×10^6 cells in 50 μl. The mice were housed in filter boxes in […] laminar flow cabinets and fed sterilized food and water. All procedures were carried out in class 1 laminar flow hoods using sterile equipment and reagents. On day 7, the tumours were measured with vernier calipers across two perpendicular diameters, and the mice were randomised into experimental groups and treated as follows: 1. […] 2. […] 3. Rimcazole 15 mg/kg/day (as above). […] The preparations were made up freshly each day, and the animals dosed intraperitoneally for 24 days. Animals were observed daily and weighed regularly to check that there were no adverse effects of treatment. […] Differences in growth were compared using the Mann-Whitney U test. At termination of the experiment the mice were killed and tumours excised and weighed. Blood, liver and tumour samples were snap frozen for analysis of drug levels by LCMS/MS. Tumour samples were also cryopreserved, and sections cut and stained with MECA-32 (Developmental Studies Hybridoma Unit; rat anti mouse endothelium) visualised with HRP conjugated goat-anti rat (Star 72, Serotec) to estimate blood vessel density.

[2] = system: human adult dermal fibroblasts; experiment: MTS cell viability/proliferation assay, dermal fibroblasts; format: cell-based
Description: (Tissue in all cases was from healthy donors). […] Primary cell types included:
Cell density was checked microscopically at time zero.

[3] = system: Human endothelial cells co-cultured with human "feeder" fibroblasts; experiment: In vitro angiogenesis assay (pseudocapillary formation, anti-CD31 staining); format: cell-based
Method: Human endothelial cells co-cultured with human “feeder” fibroblasts on a fibrin matrix in 24 well plates were incubated with ligands at different concentrations. The ligands were added on days 0, 4, 7 and 9 and the experiment terminated on day 11. On each plate, 2 wells served as untreated controls, and 2 received suramin at […] as a standard angiogenesis inhibitor. Each concentration of ligand was assayed in triplicate. On day 11, the wells were washed, and the endothelial cells fixed and stained with anti-CD31 (PECAM-1) antibody and visualised with alkaline phosphatase conjugated second antibody. The cultures were scanned for image analysis and quantitation using a DataCell image analysis system and ImagePro software. Angiogenesis was expressed as the area and/or perimeter of “pseudocapillaries” formed in the gel by the endothelial cells.

sigma-1 sites = sigma-1 sites (Homo sapiens, UniProt Q99720); settings: Abou-Gharbia et al 1993; cited from earlier work
Chain of sigma-1 sites (Q99720 whole entry): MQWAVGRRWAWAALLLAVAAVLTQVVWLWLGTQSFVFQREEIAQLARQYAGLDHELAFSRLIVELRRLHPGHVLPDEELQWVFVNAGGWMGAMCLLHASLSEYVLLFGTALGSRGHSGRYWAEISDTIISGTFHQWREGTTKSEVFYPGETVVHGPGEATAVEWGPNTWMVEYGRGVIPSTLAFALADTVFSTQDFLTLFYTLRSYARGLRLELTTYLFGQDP

C[C@@H]1CN(CCCn2c3ccccc3c3ccccc32)C[C@H](C)N1 [Rimcazole, cis-9-[3,5-dimethyl-1-piperazinyl) propyl]carbazole dihydrochloride]
Vascular volume of normal organs (liver and kidney) (sponge angiogenesis; 30 mg/kg/day for 14 days): unaffected | Neoangiogenesis in sponges (vascular volume, radiolabelled albumin) (sponge angiogenesis; 30 mg/kg/day for 14 days after implantation, FIG. 7b): reduced | Weights of excised tumours ([1]; 15 mg/kg dose, FIG. 8b): did not achieve statistical significance | Tumour growth (increase in volume relative to start of treatment) ([1]; 15 mg/kg/day i.p. for 24 days, p=0.0228 Mann-Whitney U test): significant tumour growth retardation | Tumour growth (increase in volume relative to start of treatment) ([1]; 30 mg/kg/day i.p. for 24 days, p=0.0436 Mann-Whitney U test): significant tumour growth retardation | Weights of excised tumours ([1]; 30 mg/kg/day, p=0.0239, FIG. 8b): significantly less | Health and body weight gain of mice during therapy ([1]; 15 and 30 mg/kg/day for 24 days, data not shown): remained healthy throughout therapy and gained weight at the same rate as controls | Vascular density in excised tumours ([1]; both doses (15 and 30 mg/kg/day), FIG. 8c): significantly inhibited | Survival and proliferation (MTS) ([2]; 10 micromolar, up to 48 hours, FIG. 9): continued to proliferate vigorously | Tolerance of fibroblasts over a range of concentrations (MTS) ([2]; 100 micromolar to 1 nanomolar, FIG. 10): remarkably resistant | Inhibition of in vitro angiogenesis ([3]; 4 μM, FIG. 5c): complete inhibition of angiogenesis | Inhibition of pseudocapillary formation (in vitro angiogenesis) ([3]; FIG. 4, 5a, 5b angiogenesis area): very effective in inhibiting | selectivity for sigma-1 compared to sigma-2 sites (sigma-1 sites): approximately 5 fold
